Measurements from BindingDB's records for patent US12043645 (Memorial Sloan-Kettering Cancer Center, 2024).

Target: Set1/Ash2 histone methyltransferase complex subunit ASH2 (Homo sapiens, UniProt Q9UBL3)
Experiment: Filter-paper Assay
Description: This assay relies on Whatman P-81 filter paper, which binds peptides but not SAM. Protein Methyl Transferases (PMTs) transfer 3H-Me of [3H-Me]-SAM to peptide substrates and the resultant 3H-methylated, filter-paper-bound peptide is quantified with a scintillation counter. Briefly, 6 μL of the methylation reaction was spotted onto Whatman P-81 phosphocellulose filter paper (1.2×1.2 cm2) to immobilize the 3H-labeled peptide. After drying in air for 20 min, the filter paper was immersed into 20 mL of 50 mM Na2CO3/NaHCO3 buffer (pH=9.2), and washed 5 times for 10 min each time. The washed filter paper was then transferred to a 20 mL scintillation vial containing 1 mL of distilled water and 10 mL of Ultima Gold scintillation cocktail or 7 mL scintillation vial containing 0.5 mL od distilled water and 5 mL of scintillation cocktail (PerkinElmer). The radioactivity was quantified by a Beckman LS6000IC liquid scintillation counter.

Chain of Set1/Ash2 histone methyltransferase complex subunit ASH2 (Q9UBL3 whole entry, one chain of several): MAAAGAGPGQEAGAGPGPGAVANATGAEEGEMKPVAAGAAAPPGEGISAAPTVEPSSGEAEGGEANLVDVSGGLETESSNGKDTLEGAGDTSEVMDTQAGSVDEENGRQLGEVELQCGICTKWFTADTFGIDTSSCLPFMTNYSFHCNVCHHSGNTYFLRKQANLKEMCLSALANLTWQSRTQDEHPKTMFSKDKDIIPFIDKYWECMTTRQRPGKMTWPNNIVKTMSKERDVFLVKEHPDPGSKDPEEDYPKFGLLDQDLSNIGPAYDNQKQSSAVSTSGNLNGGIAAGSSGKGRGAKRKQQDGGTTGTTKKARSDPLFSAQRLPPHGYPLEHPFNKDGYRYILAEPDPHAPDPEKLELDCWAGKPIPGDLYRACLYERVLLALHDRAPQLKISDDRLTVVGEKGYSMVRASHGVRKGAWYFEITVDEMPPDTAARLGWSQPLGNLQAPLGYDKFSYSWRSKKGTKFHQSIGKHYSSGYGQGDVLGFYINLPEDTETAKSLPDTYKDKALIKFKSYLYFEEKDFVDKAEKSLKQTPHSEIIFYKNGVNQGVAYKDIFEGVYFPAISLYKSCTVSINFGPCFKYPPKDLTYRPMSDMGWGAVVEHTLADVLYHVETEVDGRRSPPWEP

Row | IC50 [nM] | SMILES
1 | 2200 | Nc1ncnc2c1ncn2C1OC(C[C@H](CC[C@H](N)C(=O)NCCc2cc(-c3ccccc3)[nH]n2)Nc2ccccc2)C(O)C1O (stereo partly drawn) [US12043645, Example 5]
2 | 390 | COc1ccc(CCNC(=O)[C@@H](N)CC[C@@H](CC2OC(n3cnc4c(N)ncnc43)C(O)C2O)Nc2ccccc2)cc1 (stereo partly drawn) [US12043645, Example 1]
3 | 20 | CCCNC(=O)[C@@H](N)CC[C@@H](CC1OC(n2cnc3c(N)ncnc32)C(O)C1O)Nc1ccccc1 (stereo partly drawn) [US12043645, Example 7]
